US20240300940A1, “Phenothiazinyl Compounds and Uses” (Prosetta Biosciences, Inc., priority 2023, published 2024)
Where two headings read alike, the source gives them in different places.

Tests used:
MRSA ATCC 43300 [1] = test: Serum effect on antibacterial activity (MIC); format: cell-based, S. aureus; settings: Staphylococcus aureus
S. aureus ATCC25923 = test: Minimum bactericidal concentration assay; format: cell-based; settings: Staphylococcus aureus
Method: The study was done based on CLSI document M26-A Wayne, PA: Clinical and laboratory standard institute: 1999.
After determination of a MIC in a broth system under standard conditions, measured aliquots of growth media may be sub-cultured quantitatively to solid media to assess bactericidal activity. To calculate the extent of killing at each antibiotic concentration, plates are incubated under appropriate conditions, colony counts are performed and results are compared to that of the growth control well. The accepted definition of the minimum bactericidal concentration (MBC) is the lowest concentration of test compound at which a 99.9% (3 log) or greater reduction in growth compared with the initial inoculum is observed. […] (Table 4).

A. baumannii ATCC19606 = test: MIC assay, serial dilution; settings: Acinetobacter baumannii
E. coli ATCC25922 = test: MIC assay, serial dilution; settings: Escherichia coli
MRSA ATCC 43300 [2] = test: Minimum biofilm inhibition assay; format: cell-based, S. aureus
Method: The biofilm susceptibility assay and calculation of the percent reduction of AB were performed as described previously (Pettit et al., Antimicrob Agents Chem 2005, 49:2612-17). Biofilm formation was induced by growing MRSA on TSA containing 2% glucose at 37° C. for 24 hrs. After the incubation, culture was used to adjust the cell number to 1-5×10^5 CFU/mL. In parallel, two-fold dilutions of test drug/antibiotic in DMSO/solvent was prepared separately in a PCR dilution plate. 100 μL of CFU adjusted 100 μL of culture was added to 96 well plate by leaving wells for only media control. After adding culture, 2-fold diluted compound in 100% DMSO was added to 96 well plate and plates were incubated another 16-20 hrs at 37° C., to check susceptibility of biofilm forming MRSA with test drug/antibiotic. After susceptibility incubation, Resazurin was added to check inhibition of biofilm forming cells.

MRSA/S. aureus isolates = test: MIC50 against isolates; format: cell-based; settings: Staphylococcus aureus

CC1(C)C2CN(c3ccc4nc5ccc(N6CC7C(C6)C7(C)C)cc5[s+]c4c3)CC21 (stereo not shown) [Compound 1, 3,7-Di(6,6-dimethyl-3-azabicyclo[3.1.0]hexan-N-yl)phenothiazinium iodide]
MIC (MRSA ATCC 43300 [1]; MRSA ATCC 43300, 20% serum): 1 µg/mL
MIC (MRSA ATCC 43300 [1]; MRSA ATCC 43300, 40% serum): 2 µg/mL
MIC (MRSA ATCC 43300 [1]; MRSA ATCC 43300, No serum): 0.25 µg/mL
MBC (S. aureus ATCC25923): 0.25 µg/mL
MIC (A. baumannii ATCC19606): 2 µg/mL
MIC (E. coli ATCC25922; ATCC25922, E. coli ATCC25922): 4 µg/mL
MIC (E. coli ATCC25922; ATCC25922, read-out: Anti-bacterial Activity (E. coli MIC (uM)), E. coli, Table 5): 1.6 µM
MBIC (MRSA ATCC 43300 [2]; MRSA ATCC 43300, biofilm forming): 0.25
concentration inhibiting biofilm forming MRSA (MRSA ATCC 43300 [2]; biofilm forming MRSA): 1 × MIC
MIC50 (MRSA/S. aureus isolates): 0.125 µg/mL
